# Source: US5460820A, “Methods for providing testosterone and optionally estrogen replacement therapy to women” (TheraTech, Inc., priority 1993, dated 1995)
# How the values were obtained:
# [1] = in vivo; cited from earlier work
# [2] = injectable esters; cited from earlier work
# [3] = solubility in receiver medium; format: physicochemical; settings: 0.02% sodium azide solution, skin surface temperature 32°±1° C.
# [4] = without some form of permeation enhancement; cited from earlier work
smiles,measurement,setting,value
C[C@]12CCC(=O)C=C1CC[C@@H]1[C@@H]2CC[C@@]2(C)[C@H]1CC[C@]2(C)O [methyl testosterone],hepatotoxicity,[1],known to be hepatotoxic
CCCCCCC(=O)O[C@H]1CC[C@H]2[C@@H]3CCC4=CC(=O)CC[C@]4(C)[C@H]3CC[C@]12C [testosterone enanthate],fluctuations in hormone levels,[2],marked supraphysiological fluctuations in hormone levels
CCC(=O)O[C@H]1CC[C@H]2[C@@H]3CCC4=CC(=O)CC[C@]4(C)[C@H]3CC[C@]12C [testosterone propionate],fluctuations in hormone levels,[2],marked supraphysiological fluctuations in hormone levels
C[C@]12CC[C@H]3[C@@H](CCC4=CC(=O)CC[C@@]43C)[C@@H]1CC[C@@H]2O [testosterone],solubility in receiver medium,[3],adequate to ensure sink conditions throughout the experiment
same,passage through non-scrotal skin,[4],does not pass through non-scrotal skin at practical fluxes
